# Data taken from US20140288026A1, “IN[…]” (MAGNA E[…]., priority 2011, published 2014).
# Assay: Hydrolysis of dilute aqueous insecticide solution (EPA OPPT 835.2130 Hydrolysis as a Function of pH and Temperature)
# Assay type: physicochemical
# Conditions: for Bifenthrin remaining: same solution plus 220ppm polymer particles (55% solids vinyl acetate-ethylene copolymer latex, Tg 10° C.)
# Experimental: In fact, we have made dilute aqueous solutions of Bifenthrin (0.0895 ppm at pH 11.0) in accordance with EPA Fate, Transport and Transformation Test Guidelines OPPT 835.2130 Hydrolysis as a Function of pH and Temperature. After 5 hours at 25° C. only 45% of the insecticide could be detected in the solution and after 15 hours only 12% remained.
structure (smiles),measurement,setting,value
Cc1c(COC(=O)[C@@H]2[C@H](/C=C(\Cl)C(F)(F)F)C2(C)C)cccc1-c1ccccc1 (racemic) [Bifenthrin],insecticide detected in the solution,"0.0895 ppm aqueous solution at pH 11.0, 25° C., after 5 hours, no polymer particles",45%
same,insecticide remaining in the solution,"0.0895 ppm aqueous solution at pH 11.0, 25° C., after 15 hours, no polymer particles",12%
same,Bifenthrin remaining,after 5 hours,95%
same,Bifenthrin remaining,after 15 hours,93%
